In US3975421A, “15-Substituted 11α-cyano-prostaglandins and related compounds” (American Home Products Corporation, priority 1974, dated 1976):

System: adjuvant-induced arthritis in rats
Assay: adjuvant-induced arthritis in rats, per cent inhibition of paw swelling
Type: in vivo, rat
Conditions: 0.5 mg/kg s.c. daily for sixteen days, male rats
Text: In using the compounds of the invention to produce antiinflammatory effects in warm-blooded animals, they may be administered subcutaneously. The particular dosage to obtain the antiinflammatory effect will vary with the particular compound employed and the degree of antiinflammatory response desired. The antiinflammatory response produced upon subcutaneous administration can be observed by the method described by Newbould, B. B. in Brit. J. Pharm. Chemoth., 21, 127 (1963) and Rosenthale, M. E., and Nagra, C. L. in Proc. Soc. Exp. Biol. and Med., 125, 149 (1967). In this procedure, adjuvant-induced arthritis is induced in rats by injection of dead mycobacteria into the hind footpad. The test compound is administered subcutaneously daily for sixteen consecutive days beginning with the day of injection. The injected foot swells rapidly during the first 4 to 6 days. Thereafter, the swelling subsides until the 8th day, and then it resumes. About 4 to 10 days after injection, the other hind paw (un-injected) becomes swollen and other inflammatory nodules may be found in the ear and tail. The swelling of the injected paw at day 4 is taken as an indication of an acute inflammatory response. The swelling of the same paw at day 16 is taken as a delayed inflammatory response. The swelling of the other hind paw at day 16 is taken as a delayed hypersensitivity reaction. Active antiinflammatory compounds reduce the swelling in either the acute and/or the delayed phases. […] The percent protection against swelling, as compared to non-treated controls, is calculated and is used as a measure of antiinflammatory activity.
Male rats are randomly dispersed into groups. […] On day 4, the volume of the injected (right) foot is measured by means of a mercury plethysmograph. On day 16, the volumes of both the injected, right foot and the left hind foot are measured. The ability of the test compound to protect against acute and delayed swelling is measured by calculating the per cent decrease in volume of the test animals as compared to controls. […]

CCCCCC(C)(O)/C=C/[C@H]1[C@H](C#N)CC(O)[C@@H]1CCCCCCC(=O)O (stereo partly drawn) [3α-cyano-5(RS)-hydroxy-2β-[(3RS)-3-hydroxy-3-methyl-trans-1-octenyl]-1α-cyclopentaneheptanoic acid]
% Inhibition of Swelling, Day 4, Rt. Paw (injected right paw, day 4 (acute)): 25% | % Inhibition of Swelling, Day 16, Rt. Paw (injected right paw, day 16 (delayed)): 31% | % Inhibition of Swelling, Day 16, Left Paw (un-injected left paw, day 16 (delayed hypersensitivity)): 35%
